Laboratory results reported in patent US20140143910A1, “COMPOSITION THAT AUGMENTS PLANT DISEASE RESISTANCE AND/OR BRANCHING” (Riken, priority 2011, published 2014).

Tested on: PR1 gene
Test: PR1 gene expression by real-time PCR in rosette leaves of wild-type strain and bil3 mutant, treated or untreated with brassinolide
Format: in vivo, Arabidopsis thaliana
Conditions: BL-treated bil3 mutant (BIL3 gene-overexpressing), compared with the wild-type strain; FIG. 7
Protocol: Individuals of the wild-type strain and the bil3 mutant grown in the same way as in Example 1 were treated or untreated with brassinolide (BL), one type of BR, to prepare samples. Total RNA was extracted from the rosette leaf of each strain using RNeasy Plant Mini Kit (Qiagen N.V.). Next, cDNA was synthesized from the extracted total RNA using PrimeScript First-Strand cDNA Synthesis Kit (Takara Bio Inc.). Specific procedures for the total RNA extraction and the cDNA synthesis followed the protocol included in each kit. Subsequently, the expression of the PR1 gene was analyzed by real-time PCR with the synthesized cDNA as a template using primers PR1-RT-F represented by SEQ ID NO: 46 and PR1-RT-R represented by SEQ ID NO: 47, SYBR Premix EX Taq kit (Takara Bio Inc.) and a real-time PCR apparatus Thermal Cycler Dice (Takara Bio Inc.).

Question: For `CC(C)[C@H](C)[C@@H](O)[C@H](O)[C@@H](C)[C@H]1CC[C@H]2[C@@H]3COC(=O)[C@H]4C[C@H](O)[C@H](O)C[C@]4(C)[C@H]3CC[C@]12C` [BL, brassinolide], which “expression level of the PR1 gene, relative value with the BL-untreated wild-type strain as 1” value is on record?
Answer: Its value is “approximately 40 times”.
